Like-named read-outs stand apart in the source and are kept apart here.
Biological target: T1, recombinant human cGAS (aa147-522) (Homo sapiens, UniProt Q8N884)
T1 construct: recombinant human cGAS (aa147-522); His6-SUMO (cleaved yes); made in house; host or cells: E. coli BL21/pLys
Assay: In vitro inhibition assay of cGAS activity (ATP consumption, KinaseGlo Max)
Assay type: biochemical
In short: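 IC50 came from plotting % ATP consumption against log compound concentration, with leftover ATP detected by KinaseGlo Max chemiluminescence. Reactions ran 20 min at 37 °C with 1.5 μg/mL human cGAS (aa147-522), 6.6 μM ATP, 0.1 mM GTP and 0.01 mg/mL DNA at pH 7.5.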

[1] = Table 3, read-out: cGAS Inhibition Results IC50
[2] = Table 2, read-out: cGAS Inhibition Results IC50

T1 sequence (Q8N884 147-522): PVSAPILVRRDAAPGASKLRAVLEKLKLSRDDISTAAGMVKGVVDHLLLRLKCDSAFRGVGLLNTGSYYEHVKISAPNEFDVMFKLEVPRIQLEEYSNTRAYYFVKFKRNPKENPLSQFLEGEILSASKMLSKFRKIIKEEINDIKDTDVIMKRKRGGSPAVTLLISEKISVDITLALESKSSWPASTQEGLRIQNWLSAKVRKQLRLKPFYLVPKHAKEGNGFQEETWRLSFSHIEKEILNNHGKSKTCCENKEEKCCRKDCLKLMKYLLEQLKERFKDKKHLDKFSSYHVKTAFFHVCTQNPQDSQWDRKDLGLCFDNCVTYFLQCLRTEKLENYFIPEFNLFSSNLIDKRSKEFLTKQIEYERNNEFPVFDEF

Row | IC50 [1] | IC50 [2] | SMILES
1 | 2000 to 30000 nM | – | COC(=O)CO[C@@H]1CCN(c2cc(-n3ccnc3)c3ccc(Cl)c(Cl)c3n2)C1 [I-768]
2 | – | < 2000 nM | O=C(O)C1(O)CCCN(c2cc(-n3ccnc3)c3ccc(Cl)c(Cl)c3n2)C1 (stereo not drawn) [I-124]
3 | – | 2000 to 30000 nM | CC(CN1CCOCC1)Nc1cc(-c2cn[nH]c2)c2ccc(Cl)c(Cl)c2n1 (stereo not drawn) [I-211]
4 | – | > 30000 nM | O=C1CC(Nc2cc(-n3ccnc3)c3ccc(Cl)cc3n2)CCN1 (stereo not drawn) [I-365]
5 | < 2000 nM | – | OC1CC2CCC(C1)N2c1cc(-n2ccnc2)c2ccc(Cl)c(Cl)c2n1 (stereo not drawn) [I-489]
6 | < 2000 nM | – | O=P(O)(O)CCOC[C@@H]1CCCN1c1cc(-n2ccnc2)c2ccc(Cl)c(Cl)c2n1 [I-763, (S)-(2-((1-(7,8-dichloro-4-(1H-imidazol-1-yl)quinolin-2-yl)pyrrolidin-2-yl)methoxy)ethyl)phosphonic acid]
7 | – | 2000 to 30000 nM | O=C(O)CC1CCCN(c2cc(-n3ccnc3)c3ccc(Cl)cc3n2)C1 (stereo not drawn) [I-123, 2-(1-(7-chloro-4-(1H-imidazol-1-yl)quinolin-2-yl)piperidin-3-yl)acetic acid]
8 | – | > 30000 nM | NS(=O)(=O)CCNc1cc(NCC(=O)O)nc2c(Cl)c(Cl)ccc12 [I-319, (7,8-dichloro-4-((2-sulfamoylethyl)amino)quinolin-2-yl)glycine]
9 | – | > 30000 nM | Fc1ccc2c(-n3ccnc3)ccnc2c1 [I-416]
10 | – | > 30000 nM | Clc1cccc2c(-n3ccnc3)ccnc12 [I-408, 8-chloro-4-(1H-imidazol-1-yl)quinoline]
11 | < 2000 nM | – | CN(CCS(=O)(=O)N1CCCCC1C(=O)O)c1cc(-n2ccnc2)c2ccc(Cl)c(Cl)c2n1 (stereo not drawn) [I-629]
12 | 2000 to 30000 nM | – | O=C(O)[C@@H]1C[C@@H](OC(=O)N2CCOCC2)CN1c1cc(-n2ccnc2)c2ccc(Cl)c(Cl)c2n1 [I-606, (2S,4R)-1-(7,8-dichloro-4-(1H-imidazol-1-yl)quinolin-2-yl)-4-((morpholine-4-carbonyl)oxy)pyrrolidine-2-carboxylic acid]
13 | – | < 2000 nM | CN(CCNS(C)(=O)=O)c1cc(-n2ccnc2)c2ccc(Cl)c(Cl)c2n1 [I-225]
14 | – | 2000 to 30000 nM | O=C(O)[C@@H]1CCCCN1c1cc(-c2cn[nH]c2)c2ccc(Cl)c(Cl)c2n1 [I-128]
15 | – | 2000 to 30000 nM | O=C1NC(=O)C(CCCc2cc(-c3cn[nH]c3)c3ccc(Cl)c(Cl)c3n2)S1 (stereo not drawn) [I-272, 5-(3-(7,8-dichloro-4-(1H-pyrazol-4-yl)quinolin-2-yl)propyl)thiazolidine-2,4-dione]
16 | – | 2000 to 30000 nM | O=C(O)COc1c(Br)ccc2c(-n3ccnc3)cc(-c3ccccc3)nc12 [I-379, 2-((7-bromo-4-(1H-imidazol-1-yl)-2-phenylquinolin-8-yl)oxy)acetic acid]
17 | < 2000 nM | – | O=C(NS(=O)(=O)C(F)F)[C@@H]1CCCN1c1cc(-n2ccnc2)c2ccc(Cl)c(Cl)c2n1 [I-545]
18 | – | 2000 to 30000 nM | OCCCc1cc(-c2cn[nH]c2)c2ccc(Cl)c(Cl)c2n1 [I-271, 3-(7,8-dichloro-4-(1H-pyrazol-4-yl)quinolin-2-yl)propan-1-ol]
19 | < 2000 nM | – | O=C(O)COC[C@H]1CCCN(c2cc(-c3cn[nH]c3)c3ccc(Cl)c(Cl)c3n2)C1 [I-746]
20 | – | 2000 to 30000 nM | O=S(=O)(NC1CCCN(c2cc(-n3ccnc3)c3ccc(Cl)cc3n2)C1)c1cccnc1 (stereo not drawn) [I-102]
21 | – | < 2000 nM | O=[PH](O)OCC1CCCN(c2cc(-c3cn[nH]c3)c3ccc(Cl)c(Cl)c3n2)C1 (stereo not drawn) [I-329]
22 | – | > 30000 nM | COC(=O)[C@H]1CCCN(c2cc(-n3ccnc3)c3ccc(Cl)cc3n2)C1 [I-356]
23 | < 2000 nM | – | O=C(O)c1ccn(CC[C@@H]2CCCN2c2cc(-n3ccnc3)c3ccc(Cl)c(Cl)c3n2)n1 [I-731]

Row | IC50 [1] | IC50 [2] | SMILES
24 | < 2000 nM | – | Clc1ccc2c(-n3ccnc3)cc(N3CCC(c4nn[nH]n4)C3)nc2c1Cl (stereo not drawn) [I-464]
25 | 2000 to 30000 nM | – | COC(=O)[C@@H]1[C@@H](OCCC(=O)O)CCN1c1cc(-n2ccnc2)c2ccc(Cl)c(Cl)c2n1 [I-870]
26 | – | 2000 to 30000 nM | O=C(O)C1CCN(c2cc(-n3ccnc3)c3ccc(Cl)cc3n2)C1 (stereo not drawn) [I-445]
27 | – | 2000 to 30000 nM | CS(=O)(=O)Nc1cccc(-c2cc(-n3ccnc3)c3ccc(Cl)cc3n2)c1 [I-10, N-(3-(7-chloro-4-(1H-imidazol-1-yl)quinolin-2-yl)phenyl)methanesulfonamide]
28 | – | < 2000 nM | O=C(O)c1cncc(-c2cc(-n3ccnc3)c3ccc(Cl)cc3n2)c1 [I-32]
29 | – | < 2000 nM | CN(CCNS(C)(=O)=O)c1cc(-c2cn[nH]c2)c2ccc(Cl)c(Cl)c2n1 [I-235]
30 | – | 2000 to 30000 nM | Oc1c(Br)ccc2c(-n3ccnc3)cc(-c3ccccc3)nc12 [I-53, 7-bromo-4-(1H-imidazol-1-yl)-2-phenylquinolin-8-ol]
31 | – | 2000 to 30000 nM | Cc1cc(-c2cn[nH]c2)c2ccc(Cl)c(Cl)c2n1 [I-406, 7,8-dichloro-2-methyl-4-(1H-pyrazol-4-yl)quinoline]
32 | – | 2000 to 30000 nM | CC(C)[C@H](CC(=O)O)Nc1cc(-n2ccnc2)c2ccc(Cl)c(Cl)c2n1 [I-188]
33 | – | < 2000 nM | C[C@H](Nc1cc(-c2cn[nH]c2)nc2c(Cl)c(Cl)ccc12)C(=O)O [I-285]
34 | 2000 to 30000 nM | – | O=C(O)CCOC(C(=O)O)[C@@H]1CCCN1c1cc(-n2ccnc2)c2ccc(Cl)c(Cl)c2n1 (stereo partly drawn) [I-818]
35 | < 2000 nM | – | O[C@@H]1CN(c2cc(-n3ccnc3)c3ccc(Cl)c(Cl)c3n2)C[C@H]1O [I-501]
36 | – | 2000 to 30000 nM | O=C(O)c1ccc(-c2cc(-n3ccnc3)c3ccc(Cl)cc3n2)cc1 [I-4]
37 | – | 2000 to 30000 nM | O=C(O)CNC(=O)[C@H]1CN(c2cc(-c3cn[nH]c3)c3ccc(Cl)c(Cl)c3n2)CCO1 [I-343]
38 | – | 2000 to 30000 nM | Clc1ccc2c(-n3ccnc3)cc(Oc3ccccc3)nc2c1 [I-278]
39 | < 2000 nM | – | O=C(O)C1CC2CCC(C1)N2c1cc(-n2ccnc2)c2ccc(Cl)c(Cl)c2n1 (stereo not drawn) [I-493]
40 | – | > 30000 nM | O=C1CN(c2cc(-n3ccnc3)c3ccc(Cl)c(Cl)c3n2)CC(C(=O)O)N1 (stereo not drawn) [I-334]
41 | 2000 to 30000 nM | – | O=C(O)CCO[C@@H]1CCN(c2cc(-n3ccnc3)c3ccc(Cl)c(Cl)c3n2)C1 [I-767]
42 | – | > 30000 nM | COc1ccc2c(-c3cn[nH]c3)cc(NCCO)nc2c1 [I-377]
43 | < 2000 nM | – | O=C(O)[C@H](O)[C@@H]1CCCN1c1cc(-n2ccnc2)c2ccc(Cl)c(Cl)c2n1 [I-661, (R)-2-((S)-1-(7,8-dichloro-4-(1H-imidazol-1-yl)quinolin-2-yl)pyrrolidin-2-yl)-2-hydroxyacetic acid]
44 | – | < 2000 nM | Clc1ccc2c(-c3cn[nH]c3)cc(N3CCOC(c4nnn[nH]4)C3)nc2c1Cl (stereo not drawn) [I-370]
45 | < 2000 nM | – | CN(CCS(=O)(=O)N1CCCC1C(=O)O)c1cc(-n2ccnc2)c2ccc(Cl)c(Cl)c2n1 (stereo not drawn) [I-626]
46 | – | < 2000 nM | CC(=O)N[C@@H]1C[C@@H](C(=O)O)N(c2cc(-n3ccnc3)c3ccc(Cl)c(Cl)c3n2)C1 [I-347]

Row | IC50 [1] | IC50 [2] | SMILES
47 | – | > 30000 nM | O=C(O)c1cc(-c2cc(-n3ccnc3)c3ccc(Cl)cc3n2)ccc1O [I-16, 5-(7-chloro-4-(1H-imidazol-1-yl)quinolin-2-yl)-2-hydroxybenzoic acid]
48 | – | 2000 to 30000 nM | O=P(O)(O)CC1CCCN(c2cc(-n3ccnc3)c3ccc(Cl)c(Cl)c3n2)C1 (stereo not drawn) [I-114]
49 | – | > 30000 nM | CC(C)[C@H](CS(=O)(=O)O)Nc1cc(-n2ccnc2)c2ccc(Cl)cc2n1 [I-163]
50 | < 2000 nM | – | O=C(O)CO[C@@H]1CCN(c2cc(-n3ccnc3)c3ccc(Cl)c(Cl)c3n2)[C@@H]1C(=O)O [I-561]
51 | – | 2000 to 30000 nM | COc1ncc(-c2cc(-n3ccnc3)c3ccc(Cl)cc3n2)cc1C(=O)O [I-33, 5-(7-chloro-4-(1H-imidazol-1-yl)quinolin-2-yl)-2-methoxynicotinic acid]
52 | – | 2000 to 30000 nM | CN(CCNS(=O)(=O)c1ncc[nH]1)c1cc(-n2ccnc2)c2ccc(Cl)cc2n1 [I-230]
53 | – | 2000 to 30000 nM | Clc1ccc2c(-c3cn[nH]c3)cc(NCC3CNCCO3)nc2c1Cl (stereo not drawn) [I-220]
54 | – | < 2000 nM | NS(=O)(=O)N1CCOC(CNc2cc(-n3ccnc3)c3ccc(Cl)c(Cl)c3n2)C1 (stereo not drawn) [I-219, 2-(((7,8-dichloro-4-(1H-imidazol-1-yl)quinolin-2-yl)amino)methyl)morpholine-4-sulfonamide]
55 | 2000 to 30000 nM | – | O=C(O)CCO[C@H]1CCN(c2cc(-n3ccnc3)c3ccc(Cl)c(Cl)c3n2)C1 [I-771]
56 | < 2000 nM | – | CC1(C)C[C@@H](C(=O)O)N(c2cc(-n3ccnc3)c3ccc(Cl)c(Cl)c3n2)C1 [I-479]
57 | – | 2000 to 30000 nM | CN(CCNS(=O)(=O)C1CC1)c1cc(-n2ccnc2)c2ccc(Cl)cc2n1 [I-226, N-(2-((7-chloro-4-(1H-imidazol-1-yl)quinolin-2-yl)(methyl)amino)ethyl)cyclopropanesulfonamide]
58 | < 2000 nM | – | CC(C)[C@H](NC(=O)C[C@@H]1CCCN1c1cc(-n2ccnc2)c2ccc(Cl)c(Cl)c2n1)C(=O)O [I-526]
59 | – | < 2000 nM | CNC(=O)CCN(C)c1cc(-c2cn[nH]c2)c2ccc(Cl)c(Cl)c2n1 [I-192]
60 | < 2000 nM | – | COC(=O)[C@@H]1c2ccccc2CN1c1cc(-n2ccnc2)c2ccc(Cl)c(Cl)c2n1 [I-588]
61 | < 2000 nM | – | O=C(O)[C@@H]1C[C@@H](O)CN1c1cc(-n2ccnc2)c2ccc(Cl)c(Cl)c2n1 [I-514]
62 | – | > 30000 nM | O=S(=O)(NC1CCCN(c2cc(-n3ccnc3)c3ccc(Cl)cc3n2)C1)c1ccccc1 (stereo not drawn) [I-107]
63 | – | < 2000 nM | O=S(=O)(NC1CCCN(c2cc(-n3ccnc3)c3ccc(Cl)cc3n2)C1)c1ncc[nH]1 (stereo not drawn) [I-101]
64 | – | > 30000 nM | Cc1cc(NC2CCNC2=O)c2ccc(Cl)c(Cl)c2n1 (stereo not drawn) [I-315]
65 | – | > 30000 nM | Clc1ccc2c(-n3ccnc3)cc(NCc3ccncc3)nc2c1 [I-353, 7-chloro-4-(1H-imidazol-1-yl)-N-(pyridin-4-ylmethyl)quinolin-2-amine]
66 | 2000 to 30000 nM | – | COC(=O)C(O)[C@@H]1CCCN1c1cc(-n2ccnc2)c2ccc(Cl)c(Cl)c2n1 (stereo partly drawn) [I-662]
67 | – | 2000 to 30000 nM | OC[C@H](Nc1cc(-n2ccnc2)c2ccc(Cl)c(Cl)c2n1)c1ccccc1 [I-247]
68 | – | < 2000 nM | C[C@@H](Nc1cc(-c2cn[nH]c2)nc2c(Cl)c(Cl)ccc12)C(=O)O [I-286]
69 | – | < 2000 nM | O=C(N[C@@H]1C[C@@H](C(=O)O)N(c2cc(-n3ccnc3)c3ccc(Cl)c(Cl)c3n2)C1)c1ccccc1 [I-350]
